These results are taken from the METLIN SMRT retention time set (Domingo-Almenara et al. 2019).

The series can be described thus: gradient 5% acetonitrile 3 min, to 50% in 2 min, to 85% in 15 min, held 3 min, 100 µL/min. The conditions noted are these: column: Zorbax Extend-C18 2.1 x 50 mm; eluents: water / acetonitrile, 0.1% formic acid. The procedure, abridged: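 Pure standards were run in mixtures of ~100 molecules by HPLC coupled to a quadrupole time-of-flight mass spectrometer. The column was a Zorbax Extend-C18 (2.1 × 50 mm, 1.8 μm) at 100 μL/min, with water and acetonitrile each containing 0.1% formic acid, in positive and negative ionization mode. Dead and dwell volumes were 40 μL and 900 μL. Retention time was taken from computationally picked adduct peaks, each manually inspected, with data collected over 3 months.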
The compound `CCc1noc(NC(C)=O)c1-c1ccc(C)c(S(=O)(=O)Nc2ccc(OC)c(OC)c2)c1` displayed an RP-LC retention time of 840 s.

Consider `COC(=O)c1cc2c(=O)n(-c3cc(Cl)ccc3Cl)ccc2nc1C`, for which the RP-LC retention time is 944 s.

With `Cc1nc(-c2csc(S(=O)(=O)N3CCC(C(=O)N4CCc5ccccc54)CC3)c2)no1`, the RP-LC retention time was 595 s.

`COc1ccc(Cl)cc1C(=O)NC1CCN(c2cc(-c3cccs3)[nH]n2)C1` (stereo not drawn) gave an RP-LC retention time of 802 s.

As for `Cc1ccc(-c2nc3ccccc3[nH]2)cc1NC(=O)CC(C)C`, the RP-LC retention time was 656 s.

The compound `Cc1ccc(N2CCN(C(=O)c3cn(-c4cc(N5CCCCC5)ncn4)cn3)CC2)cc1` had an RP-LC retention time of 994 s.

As for `O=C(C1CCCN(c2ncnc3c2nc2n3CCCCC2)C1)N1CCN(C2CCCCC2)CC1` (stereo not drawn), the RP-LC retention time was determined as 604 s.

For the compound `O=C(NC1CCN(c2cc(-c3ccc(Cl)cc3)[nH]n2)C1)c1ccccn1` (stereo not drawn), the RP-LC retention time turned out to be 751 s.

For `Cc1sc2ncn(CC(=O)NCCCC(=O)N3CCCC(C)C3)c(=O)c2c1C` (stereo not drawn), the RP-LC retention time is 721 s.

Regarding `Cc1ccc(CN2CC3(CCCCC3)CC2COc2ccncc2)nc1` (stereo not drawn), the RP-LC retention time amounted to 615 s.

With `CCc1ccc(-n2nnc(C(=O)N3CCC4(CC3)OCCO4)c2-c2cccnc2)cc1`, the RP-LC retention time stood at 783 s.

`OC[C@@H]1CN(Cc2ccc3[nH]ccc3c2)C[C@H]1c1ccccn1` came in with an RP-LC retention time of 580 s.

Regarding `COc1ccc(NC(=O)C2CCCN2S(=O)(=O)c2ccc(F)cc2)cc1` (stereo not drawn), the RP-LC retention time was determined as 844 s.

For the compound `O=C1COc2ccc(Cl)cc2N1Cc1nc(-c2ccc(OC(F)(F)F)cc2)no1`, the RP-LC retention time was 1210 s.

For the compound `O=C1C(N2CCN(S(=O)(=O)c3ccc(Cl)cc3)CC2)CCN1CCc1ccccc1` (stereo not drawn), the RP-LC retention time is 718 s.

`COc1ccc(C)cc1NC(=O)Cn1nc2c(Oc3ccccc3C)nccn2c1=O` yielded an RP-LC retention time of 896 s.

For the compound `O=C(Cn1c(C(=O)NCc2ccc(F)cc2F)cccc1=O)NC1CCCC1`, the RP-LC retention time was 868 s.

As to `CCCCc1ccc(NC(=O)Cn2cnc3nc(N4CCCC(C(=O)NC)C4)sc3c2=O)cc1` (stereo not drawn), the RP-LC retention time came out at 759 s.

In turn, `Cc1nc2ccn(Cc3ccco3)c(=O)c2cc1C(=O)NCCC(C)C` came in with an RP-LC retention time of 776 s.

`O=C(Cc1ccc(NC(=O)CCS(=O)(=O)c2ccccc2)cc1)NCc1cccs1` came in with an RP-LC retention time of 701 s.

Take `NC(=O)COC1CCC12CCN(C(=O)C1CCCC1)CC2` (stereo not drawn): the RP-LC retention time came to 693 s.

The compound `Cc1ccc(C(=O)Nc2ccc3c(c2)Sc2ncccc2C(=O)N3C(C)C)cc1C` displayed an RP-LC retention time of 997 s.

The compound `COc1ccc(-c2nc(C)cc(C)c2CNS(=O)(=O)c2ccc(C)cc2)cc1` had an RP-LC retention time of 670 s.

`Cc1ccc(Cn2c(N3CCCC(C(=O)NCc4ccc(C)o4)C3)nc3ccsc3c2=O)cc1` (stereo not drawn): the RP-LC retention time amounted to 952 s.

Regarding `O=C(NCc1ccccc1F)c1ccc2ncnc(N3CCCC3)c2c1`, the RP-LC retention time is 623 s.

`COc1ccc(NS(=O)(=O)c2cc(-c3nc(C(C)(C)C)cs3)cs2)cc1Cl`: the RP-LC retention time came to 1220 s.

In turn, `Cn1c(C(=O)N2CCN(c3ccccn3)CC2)cc2c(=O)n(C)c3ccccc3c21` returned an RP-LC retention time of 562 s.

`O=C(Cc1cccs1)NCCN1CCN(c2ccc(Cl)cc2)CC1` returned an RP-LC retention time of 583 s.

For the compound `Cc1cc(C(=O)NCc2ccc3c(c2)OCO3)c2ccccc2n1`, the RP-LC retention time amounted to 637 s.

With `CCNC(=O)CN1C(=O)CCCc2cc(S(=O)(=O)N3CCC(C)CC3)ccc21`, the RP-LC retention time was found to be 769 s.

As for `CCCN1CCN(C(=O)c2cnn(-c3cc(-c4nc(C(C)(C)C)no4)ccn3)c2C)CC1`, the RP-LC retention time is 715 s.

For `CCOC(=O)C1C(=O)C=C(c2ccco2)CC1c1ccccc1Cl` (stereo not drawn), the RP-LC retention time was found to be 1090 s.

In the case of `Cc1ccccc1N1CCN(C(=O)C2=CCN(Cc3cccc(F)c3)CC2)CC1`, the RP-LC retention time was determined as 712 s.

The compound `Cc1nn(-c2ccc(F)cc2)c(C)c1S(=O)(=O)N1CCN(c2ccccn2)CC1` yielded an RP-LC retention time of 683 s.

The compound `CCCN1C(=O)COc2cc(-c3noc(C(=O)NC4CCCC4)n3)ccc21` returned an RP-LC retention time of 977 s.

Turning to `Cc1ccc(C)c(-n2ccn(Cc3nc(-c4ccc(F)cc4)no3)c(=O)c2=O)c1`, the RP-LC retention time worked out at 910 s.

For `Cn1nc(C(=O)N2CCCCC2)c2c1CCN(C(=O)CCC(=O)NC1CCCCCC1)C2`, the RP-LC retention time came out at 728 s.

The compound `Cc1ccc(CNC(=O)C2CCCN(c3nnc(C)c4c(C)n(-c5ccccc5)nc34)C2)cc1` (stereo not drawn) yielded an RP-LC retention time of 726 s.

Regarding `CCCCOc1ccc(CNC(=O)C2CCCN(c3nccc(C)n3)C2)cc1` (stereo not drawn), the RP-LC retention time was found to be 930 s.

In turn, `O=C(CCc1nnn2c1CN(C(=O)C1CCCC1)CC2)N1CCOCC1` returned an RP-LC retention time of 616 s.

Compound `COc1cc(OC)c(NS(=O)(=O)c2ccc3c(c2)-c2oncc2CO3)cc1Cl` came in with an RP-LC retention time of 910 s.

In turn, `CCN1C(=O)c2cccnc2Sc2cc(NC(=O)c3ccc(Cl)cc3OC)ccc21` gave an RP-LC retention time of 804 s.

As for `O=C1COc2cc(S(=O)(=O)N3CCCC3C(=O)Nc3ccc4c(c3)OCCO4)c(Cl)cc2N1` (stereo not drawn), the RP-LC retention time stood at 734 s.

`CC(=O)Nc1cc2c(cc1Sc1ccc(Cl)cc1)n(C)c(=O)n2C` came in with an RP-LC retention time of 806 s.

Compound `Cc1cc(=O)n(CC(=O)Nc2cc(F)ccc2F)c(N2CCc3ccccc3C2)n1` had an RP-LC retention time of 849 s.

`CC(C)NC(=O)N1CCc2c(c(-c3nc(-c4ccccc4)no3)nn2C)C1` displayed an RP-LC retention time of 820 s.

Regarding `CN1c2cc(F)ccc2C(=O)NC12CCN(C(=O)Cc1cccc(F)c1)CC2`, the RP-LC retention time worked out at 752 s.

Take `c1cc(-c2noc(-c3n[nH]c4c3CCCC4)n2)cc(-c2ccn[nH]2)c1`: the RP-LC retention time is 836 s.

For `CCn1c(=O)n(Cc2cccnc2)c(=O)c2cnc(-c3ccc(OC)cc3)nc21`, the RP-LC retention time came out at 762 s.

The compound `O=c1c2cc(-c3cccs3)nn2cnn1Cc1nc(-c2ccccc2)no1` returned an RP-LC retention time of 1050 s.

The compound `CCOC(=O)C(C)Oc1cccc2c(=O)n(CC(=O)NCc3ccco3)ccc12` (stereo not drawn) had an RP-LC retention time of 725 s.

Compound `CCc1nn(CC)c(=O)c2cc(S(=O)(=O)NCc3ccc(F)c(Cl)c3)cn12` yielded an RP-LC retention time of 1010 s.

The compound `CC(C)(C)n1nc2c(c1-n1cccc1)CN(C(=O)C1COc3ccccc3O1)C2` (stereo not drawn) displayed an RP-LC retention time of 1050 s.

Consider `O=C(NCCN1CCCCC1)c1ccc(I)cc1`, for which the RP-LC retention time came out at 678 s.

As for `CN(Cc1ccco1)S(=O)(=O)c1ccc(C(=O)Nc2cccc(Cl)c2Cl)cc1`, the RP-LC retention time is 1010 s.

Consider `O=C(c1c(F)cccc1Cl)N1CCN(c2ccc3nnc(-c4ccco4)n3n2)CC1`, for which the RP-LC retention time came to 680 s.

In turn, `Cc1ccc(-c2nc3sc(N4CCCCC4)nn3c2NC(=O)C2CC2)cc1` returned an RP-LC retention time of 885 s.

`Cc1noc(C)c1S(=O)(=O)N1CCC2(CC1)N(c1ccccc1)C(=O)CS2=O` (stereo not drawn) came in with an RP-LC retention time of 708 s.

With `COc1ccc(OC)c(NC(=O)Cn2cnc3cc4c(cc32)OCCO4)c1`, the RP-LC retention time stood at 641 s.

Turning to `CCC(=O)N1CCCCCNC(=O)[C@@H]2CCC[C@@H]21`, the RP-LC retention time was 621 s.

The compound `Cc1nc2cc(N3CC(C(=O)Nc4ccc(Cl)cc4C)CC3=O)ccc2o1` (stereo not drawn) registered an RP-LC retention time of 781 s.

`CC(C)C(=O)Nc1ccc(-n2cnc(C(=O)NCc3ccc(F)cc3)c2)nc1` came in with an RP-LC retention time of 753 s.

`Cc1ccc(-c2ccc(N3CCCC(C(=O)N4CCC(C(N)=O)CC4)C3)nn2)cc1C` (stereo not drawn) yielded an RP-LC retention time of 622 s.

Compound `COCC(C)(O)CNC(=O)Nc1cccs1` (stereo not drawn) returned an RP-LC retention time of 594 s.

Turning to `O=C(CCn1ccc2cc(S(=O)(=O)N3CCCCC3)ccc21)N1CCN(c2ccccn2)CC1`, the RP-LC retention time amounted to 680 s.

`CCOc1ccccc1-c1noc(Cn2c(=O)n(Cc3ccccc3)c(=O)c3sccc32)n1` registered an RP-LC retention time of 1090 s.

As for `CN(C)C(=O)c1cc2c(s1)CCC(C(=O)NCc1nc3ccccc3n1C)C2` (stereo not drawn), the RP-LC retention time was 595 s.

In the case of `CCOC(=O)c1[nH]c(C)c(CN(Cc2ccco2)C(=O)Cc2ccccc2)c1C`, the RP-LC retention time is 977 s.

As to `Cc1[nH]c(C(=O)N2CCCC(C(=O)NCC3CCCO3)C2)c(C)c1C(=O)OC(C)C` (stereo not drawn), the RP-LC retention time amounted to 701 s.

The compound `CCC(C)NC(=O)C1CCN(Cc2cc3ccccc3n2Cc2cccc(Cl)c2)CC1` (stereo not drawn) displayed an RP-LC retention time of 796 s.

As to `COc1cc(-c2nc(-c3ccc4c(c3)nnn4C)no2)cc(OC)c1OC`, the RP-LC retention time stood at 937 s.

Compound `COc1ccc(CC(=O)N2CCN(c3cc(C)n4c(C)nnc4n3)CC2)cc1Cl` displayed an RP-LC retention time of 614 s.

Turning to `Cn1c(=O)c(N2CCC(NC(=O)Nc3ccc(F)cc3F)CC2)nc2ccccc21`, the RP-LC retention time was 888 s.

Regarding `COc1ccc(OC)c2sc(N(CCN(C)C)C(=O)c3nc4ccccc4s3)nc12`, the RP-LC retention time worked out at 715 s.

`O=C(O)c1cccc(Nc2c(-c3ccc(F)cc3)nc3cnccn23)c1` gave an RP-LC retention time of 702 s.

As for `COc1ccc(CNC(=O)C2CCCN(c3ccc(=O)n(-c4ccc(C)c(Cl)c4)n3)C2)cc1OC` (stereo not drawn), the RP-LC retention time turned out to be 837 s.

In turn, `CC1CCN(c2cc(-c3nccn3CC(=O)NC3CCCCC3)ccn2)CC1` returned an RP-LC retention time of 675 s.

Consider `Cc1ccc(CNC(=O)CC2CCOCC2)o1`, for which the RP-LC retention time stood at 663 s.
